{"source": "patent US20250230193A1", "about": "“CYCLIC COMPOUND HAVING SELECTIVE KRAS INHIBITORY EFFECT ON HRAS AND NRAS” (CHUGAI SEIYAKU KABUSHIKI KAISHA, priority 2022, published 2025)", "key": {"[1]": {"target": "GDP-bound NRAS wild-type protein (Homo sapiens, UniProt P01111)", "sequence (P01111 whole entry)": "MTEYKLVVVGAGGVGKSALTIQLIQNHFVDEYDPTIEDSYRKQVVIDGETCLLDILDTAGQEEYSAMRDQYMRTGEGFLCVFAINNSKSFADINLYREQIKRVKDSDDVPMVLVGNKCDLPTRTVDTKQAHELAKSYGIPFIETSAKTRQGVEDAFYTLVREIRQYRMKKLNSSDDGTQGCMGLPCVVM", "assay": "Binding to NRAS by surface plasmon resonance (SPR), Single Cycle Kinetics"}, "[2]": {"target": "GDP-bound HRAS wild-type protein (Homo sapiens, UniProt P01112)", "sequence (P01112 whole entry)": "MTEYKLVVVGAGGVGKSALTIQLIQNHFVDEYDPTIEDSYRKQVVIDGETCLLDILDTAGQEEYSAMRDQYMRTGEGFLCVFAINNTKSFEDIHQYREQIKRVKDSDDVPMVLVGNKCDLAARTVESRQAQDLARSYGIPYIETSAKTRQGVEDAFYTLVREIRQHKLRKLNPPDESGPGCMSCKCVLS", "assay": "Binding to HRAS by surface plasmon resonance (SPR), Single Cycle Kinetics"}, "[3]": {"settings": "KD ratio NRAS/KRAS, class symbols"}, "[4]": {"settings": "KD ratio HRAS/KRAS, class symbols"}}, "note": "Where a SMILES comes first, the peptide text is derived from it. Bridges are numbered along the chain shown (N, C = ends). [ ]: non-standard residue; d: D form. The star is where a group is joined. hPhe(3-Cl-4-CF3) = N[C@@H](CCc1ccc(C(F)(F)F)c(Cl)c1)C(=O)O; NPrPhe(4-CF3) = CCCN[C@@H](Cc1ccc(C(F)(F)F)cc1)C(=O)O; NMeAbu(4,4,4-F3) = CN[C@@H](CC(F)(F)F)C(=O)O; NMeGly(cPent) = CN[C@H](C(=O)O)C1CCCC1; Pro(4,4-F2) = O=C(O)[C@@H]1CC(F)(F)CN1; NMeD = CN[C@@H](CC(=O)O)C(=O)O; Morpholide = C1CN(*)CCO1; NMeA = CN[C@@H](C)C(=O)O; Ac5c = NC1(C(=O)O)CCCC1; Aze = O=C(O)[C@@H]1CCN1; Sar = CNCC(=O)O", "data": [{"smiles": "CCCN1C(=O)[C@@H]2CCN2C(=O)[C@H](C)N(C)C(=O)[C@H]([C@@H](C)CC)NC(=O)[C@H](CC(F)(F)F)N(C)C(=O)C[C@@H](C(=O)N2CCOCC2)N(C)C(=O)[C@H](C2CCCC2)N(C)C(=O)C2(CCCC2)NC(=O)[C@@H]2CC(F)(F)CN2C(=O)[C@H](CCc2ccc(C(F)(F)F)c(Cl)c2)NC(=O)CN(C)C(=O)[C@@H]1Cc1ccc(C(F)(F)F)cc1", "note": "[PP0203] ([NMeAbu(4,4,4-F3)]I[NMeA][Aze][NPrPhe(4-CF3)][Sar][hPhe(3-Cl-4-CF3)][Pro(4,4-F2)][Ac5c][NMeGly(cPent)][NMeD]-Morpholide; lactam N-11)", "values": [{"measurement": "NRAS/KRAS (ratio of KD for GDP-bound NRAS wild-type to KD for KRAS)", "setting": "[1]; KD ratio NRAS/KRAS, SPR", "result": "C (A compound having a KD ratio of 0.1 or more and less than 3 is denoted as C)"}, {"measurement": "HRAS/KRAS (ratio of KD for GDP-bound HRAS wild-type to KD for KRAS)", "setting": "[2]; KD ratio HRAS/KRAS, SPR", "result": "C (A compound having a KD ratio of 0.1 or more and less than 3 is denoted as C)"}]}, {"smiles": "CC[C@H](C)[C@@H]1NC(=O)[C@H](CC2CC2)N(C)C(=O)C[C@@H](C(=O)N(C)CC)N(C)C(=O)[C@H](C2CCCC2)N(C)C(=O)C2(CC(C)(C)C2)NC(=O)[C@@H]2C[C@@H](F)CN2C(=O)[C@H](CCc2cc(F)c(C(F)(F)F)c(F)c2)NC(=O)CN(C)C(=O)[C@H](Cc2ccc(C)cc2)N2CC/C=C\\C[C@@H](C2=O)N(C)C(=O)CN(C)C1=O", "note": "[PP2802]", "values": [{"measurement": "NRAS/KRAS (ratio of KD value with respect to GDP-bound NRAS wild-type protein to KD value with respect to KRAS)", "setting": "[1]; [3]", "result": "AA (a compound having 20 or more is denoted as AA)"}, {"measurement": "HRAS/KRAS (ratio of KD value with respect to GDP-bound HRAS wild-type protein to KD value with respect to KRAS)", "setting": "[2]; [4]", "result": "A (a compound having 10 or more and less than 20 is denoted as A)"}]}, {"smiles": "CCO[C@@H]1C[C@H]2C(=O)NC3(CC(C)(C)C3)C(=O)N(C)[C@@H](C(CC)CC)C(=O)N(C)[C@H](C(=O)N(C)C)CC(=O)N(C)[C@H]3CCC/C=C/c4ccc(cc4)C[C@@H](C(=O)N(C)CC(=O)N[C@@H](CCc4cc(F)c(C(F)(F)F)c(F)c4)C(=O)N2C1)N1CC/C=C\\C[C@@H](C1=O)N(C)C(=O)CN(C)C(=O)[C@H]([C@@H](C)CC)NC3=O", "note": "[PP2575]", "values": [{"measurement": "NRAS/KRAS (ratio of KD value with respect to GDP-bound NRAS wild-type protein to KD value with respect to KRAS)", "setting": "[1]; [3]", "result": "A (a compound having 10 or more and less than 20 is denoted as A)"}, {"measurement": "HRAS/KRAS (ratio of KD value with respect to GDP-bound HRAS wild-type protein to KD value with respect to KRAS)", "setting": "[2]; [4]", "result": "A (a compound having 10 or more and less than 20 is denoted as A)"}]}, {"smiles": "CC[C@H](C)[C@@H]1NC(=O)[C@H](CC(C)C)N(C)C(=O)C[C@@H](C(=O)N2CCOCC2)N(C)C(=O)[C@H](C2CCCCC2)N(C)C(=O)C2(CCCC2)NC(=O)[C@@H]2CCCN2C(=O)[C@H](CCc2cc(F)c(C(F)(F)F)c(F)c2)NC(=O)CN(C)C(=O)[C@H](Cc2ccc(C(F)(F)F)cc2)N2CCCC[C@@H](C2=O)N(C)C(=O)CN(C)C1=O", "note": "[PP0567]", "values": [{"measurement": "NRAS/KRAS (ratio of KD value with respect to GDP-bound NRAS wild-type protein to KD value with respect to KRAS)", "setting": "[1]; KD ratio NRAS/KRAS, SPR", "result": "B (a compound having 3 or more and less than 10 is denoted as B)"}, {"measurement": "HRAS/KRAS (ratio of KD value with respect to GDP-bound HRAS wild-type protein to KD value with respect to KRAS)", "setting": "[2]; KD ratio HRAS/KRAS, SPR", "result": "B (a compound having 3 or more and less than 10 is denoted as B)"}]}, {"smiles": "CC[C@H](C)[C@@H]1NC(=O)[C@H](CC(C)C)N(C)C(=O)C[C@@H](C(=O)N(C)CC)N(C)C(=O)[C@H](C2CCCC2)N(C)C(=O)C2(CC(C)(C)C2)NC(=O)[C@@H]2C[C@H](C)CN2C(=O)[C@H](CCc2cc(F)c(C(F)(F)F)c(F)c2)NC(=O)CN(C)C(=O)[C@H](Cc2ccc(C)cc2)N2CC/C=C\\C[C@@H](C2=O)N(C)C(=O)[C@@H]2CCCN2C1=O", "note": "[PP2411]", "values": [{"measurement": "NRAS/KRAS (ratio of KD value with respect to NRAS to KD value with respect to KRAS)", "setting": "[1]; SPR, GDP-bound NRAS wild-type vs GDP-bound KRAS wild-type", "result": "A (a compound having 10 or more and less than 20 is denoted as A)"}, {"measurement": "HRAS/KRAS (ratio of KD value with respect to HRAS to KD value with respect to KRAS)", "setting": "[2]; SPR, GDP-bound HRAS wild-type vs GDP-bound KRAS wild-type", "result": "A (a compound having 10 or more and less than 20 is denoted as A)"}]}, {"smiles": "CCC[C@H]1C(=O)N[C@@H]([C@@H](C)CC)C(=O)N(C2CC2)CC(=O)N(C)[C@H]2C/C=C\\CCN(C2=O)[C@@H](Cc2ccc(C(F)(F)F)cc2)C(=O)N(C)CC(=O)N[C@@H](CCc2ccc(C(F)(F)F)c(OC)c2)C(=O)N2C[C@H](OCC)C[C@H]2C(=O)NC2(CC(C)(C)C2)C(=O)N(C)[C@@H](CC2CCC2)C(=O)N(C)[C@H](C(=O)N(C)C)CC(=O)N1C", "note": "[PP2770]", "values": [{"measurement": "NRAS/KRAS (ratio of KD value with respect to GDP-bound NRAS wild-type protein to KD value with respect to KRAS)", "setting": "[1]; [3]", "result": "A (a compound having 10 or more and less than 20 is denoted as A)"}, {"measurement": "HRAS/KRAS (ratio of KD value with respect to GDP-bound HRAS wild-type protein to KD value with respect to KRAS)", "setting": "[2]; [4]", "result": "A (a compound having 10 or more and less than 20 is denoted as A)"}]}, {"smiles": "CC[C@H](C)[C@@H]1NC(=O)[C@H](CC(C)C)N(C)C(=O)C[C@@H](C(=O)N(C)C)N(C)C(=O)[C@H](C2CCCC2)N(C)C(=O)C2(CCC2)NC(=O)[C@@H]2CC(F)(F)CN2C(=O)[C@H](CCc2cc(F)c(C(F)(F)F)c(F)c2)NC(=O)CN(C)C(=O)[C@H](Cc2ccc(C(F)(F)F)cc2)N2CCCCC[C@@H](C2=O)N(C)C(=O)CN(C)C1=O", "note": "[PP0466]", "values": [{"measurement": "NRAS/KRAS (ratio of KD value with respect to GDP-bound NRAS wild-type protein to KD value with respect to KRAS)", "setting": "[1]; KD ratio NRAS/KRAS, SPR", "result": "B (a compound having 3 or more and less than 10 is denoted as B)"}, {"measurement": "HRAS/KRAS (ratio of KD value with respect to GDP-bound HRAS wild-type protein to KD value with respect to KRAS)", "setting": "[2]; KD ratio HRAS/KRAS, SPR", "result": "B (a compound having 3 or more and less than 10 is denoted as B)"}]}]}
